From ChEMBL document CHEMBL1201862, “PubChem BioAssay data set” (2004)
Activity calls are given as the source filed them.

Tests used:
[1] = fluconazole-exposed Candida albicans growth modulators – fluorescence, retest, confirmation (AID 2467); type: functional, cell-based
[2] = test system: Streptococcus sp. 'group A'; assay: Streptococcus pyogenes SK(-)GAS viability under kanamycin – luminescence, BacTiterGlo, confirmation, counter-screen for streptokinase expression inhibitor project, dose response (AID 1900); type: functional, organism-based
[3] = NIH-3T3 fibroblast cytotoxicity, dose response, cytotoxicity control, cell-based, fluorescence, Alamar Blue, secondary assay (AID 2327); type: functional;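 note: NIH-3T3 mouse fibroblasts cultured with fluconazole at 8 µg/mL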
Streptokinase A = molecular target: T1, Streptokinase A (Streptococcus pyogenes serotype M1, UniProt P10520); assay: viability-normalized secreted streptokinase activity reduction – plasminogen activation absorbance, OD405, dose response (AID 1914); type: functional, Streptococcus pyogenes M1 GAS;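 note: secreted streptokinase activity via plasminogen activation per viability signal from cell pellet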
T1 sequence (P10520 whole entry): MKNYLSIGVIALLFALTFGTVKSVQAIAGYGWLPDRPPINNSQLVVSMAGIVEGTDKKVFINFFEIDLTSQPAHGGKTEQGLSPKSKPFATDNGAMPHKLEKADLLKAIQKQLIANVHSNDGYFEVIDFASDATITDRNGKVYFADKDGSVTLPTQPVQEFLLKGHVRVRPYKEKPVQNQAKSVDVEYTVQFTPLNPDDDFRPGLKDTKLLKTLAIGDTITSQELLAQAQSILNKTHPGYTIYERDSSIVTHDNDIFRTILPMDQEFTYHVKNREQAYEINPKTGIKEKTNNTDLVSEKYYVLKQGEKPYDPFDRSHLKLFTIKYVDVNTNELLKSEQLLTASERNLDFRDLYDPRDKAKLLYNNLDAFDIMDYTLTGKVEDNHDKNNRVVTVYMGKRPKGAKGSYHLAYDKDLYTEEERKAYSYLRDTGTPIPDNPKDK

[4] = molecular target: T2, High affinity choline transporter 1 (Homo sapiens, UniProt Q9GZV3); assay: human choline transporter blockers, potency – cell-based, 10-point CRC, membrane potential dye, dose response (AID 588401); type: functional;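 note: membrane potential dye fluorescence of choline-evoked depolarization via CHT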
T2 sequence (Q9GZV3 whole entry): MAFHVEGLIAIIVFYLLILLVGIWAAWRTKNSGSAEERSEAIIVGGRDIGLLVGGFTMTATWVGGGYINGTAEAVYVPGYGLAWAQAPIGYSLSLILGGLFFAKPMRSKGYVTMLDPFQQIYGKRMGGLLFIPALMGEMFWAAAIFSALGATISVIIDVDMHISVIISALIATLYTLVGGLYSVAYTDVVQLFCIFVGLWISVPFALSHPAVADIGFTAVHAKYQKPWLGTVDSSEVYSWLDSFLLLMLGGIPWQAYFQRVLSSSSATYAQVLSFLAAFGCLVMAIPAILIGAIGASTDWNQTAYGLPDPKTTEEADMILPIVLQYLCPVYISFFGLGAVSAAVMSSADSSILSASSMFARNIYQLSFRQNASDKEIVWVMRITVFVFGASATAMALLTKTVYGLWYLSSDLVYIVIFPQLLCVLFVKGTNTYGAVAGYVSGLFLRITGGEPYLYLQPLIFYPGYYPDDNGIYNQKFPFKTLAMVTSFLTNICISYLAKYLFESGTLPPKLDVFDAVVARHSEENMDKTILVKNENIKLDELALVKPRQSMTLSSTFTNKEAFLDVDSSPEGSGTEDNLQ

Cysteine protease ATG4B = molecular target: T3, Cysteine protease ATG4B (Homo sapiens, UniProt Q9Y4P1); type: functional;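 note: Fluorescence-based dose-response confirmation assay measuring inhibition of ATG4B activity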
T3 sequence (Q9Y4P1 whole entry): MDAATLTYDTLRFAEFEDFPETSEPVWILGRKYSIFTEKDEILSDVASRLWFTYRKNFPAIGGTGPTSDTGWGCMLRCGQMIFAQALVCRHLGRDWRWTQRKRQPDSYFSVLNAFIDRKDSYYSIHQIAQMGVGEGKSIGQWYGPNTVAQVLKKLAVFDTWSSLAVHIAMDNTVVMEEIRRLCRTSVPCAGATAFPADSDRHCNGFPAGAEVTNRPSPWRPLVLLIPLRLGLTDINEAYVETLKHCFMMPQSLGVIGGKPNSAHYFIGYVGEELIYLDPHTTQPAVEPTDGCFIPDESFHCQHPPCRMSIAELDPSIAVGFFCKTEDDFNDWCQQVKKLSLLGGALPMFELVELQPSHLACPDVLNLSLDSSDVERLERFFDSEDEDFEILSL

[5] = molecular target: T2, High affinity choline transporter 1; assay: human choline transporter blockers, potency – cell-based, 5-point CRC, membrane potential dye, dose response (AID 504840); type: functional
Phospholipase A2 = Phospholipase A2 (Homo sapiens, UniProt P04054); type: functional;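 note: confirmatory dose-response counterscreen on phospholipase A2, testing hits that came from an ultra-high-throughput screen for ATG4B inhibitors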
Streptococcus = assay: GAS UMAA2166 growth inhibition – luminescence, BacTiterGlo, counter-screen for streptokinase expression inhibitor project, dose response (AID 1915); type: functional, organism-based;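 note: potency for reduction of bacterial viability or growth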
[6] = molecular target: T4, Corticotropin-releasing factor receptor 2/Corticotropin-releasing factor-binding protein (Homo sapiens, UniProt P24387+Q13324); assay: activators of CRF receptor 2 with binding protein – uHTS hits, confirmation (AID 602473); type: functional; conditions: read-out: EC50_Mean
T4 sequence (Q13324 whole entry): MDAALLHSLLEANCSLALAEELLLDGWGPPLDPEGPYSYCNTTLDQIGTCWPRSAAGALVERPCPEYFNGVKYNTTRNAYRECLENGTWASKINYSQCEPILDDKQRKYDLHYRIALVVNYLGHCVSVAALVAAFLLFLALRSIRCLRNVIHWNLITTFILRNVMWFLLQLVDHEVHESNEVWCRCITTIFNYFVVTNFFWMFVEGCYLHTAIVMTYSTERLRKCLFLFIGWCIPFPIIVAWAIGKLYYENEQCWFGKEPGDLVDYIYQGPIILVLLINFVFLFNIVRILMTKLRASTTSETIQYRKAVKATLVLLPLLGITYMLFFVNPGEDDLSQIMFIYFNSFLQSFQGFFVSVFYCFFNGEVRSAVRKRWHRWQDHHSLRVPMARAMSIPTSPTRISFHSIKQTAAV
T4 sequence (P24387 whole entry): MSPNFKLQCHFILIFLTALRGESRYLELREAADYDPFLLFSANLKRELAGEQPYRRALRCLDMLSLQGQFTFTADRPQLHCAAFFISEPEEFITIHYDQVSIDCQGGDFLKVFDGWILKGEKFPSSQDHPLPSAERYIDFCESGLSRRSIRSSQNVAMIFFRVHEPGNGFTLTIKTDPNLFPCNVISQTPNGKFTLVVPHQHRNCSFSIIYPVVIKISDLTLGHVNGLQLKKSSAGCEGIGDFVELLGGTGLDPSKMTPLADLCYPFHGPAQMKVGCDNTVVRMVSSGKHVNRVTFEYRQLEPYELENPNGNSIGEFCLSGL

[7] = molecular target: T5, Endoribonuclease toxin MazF (Escherichia coli K-12, UniProt P0AE70); assay: substrate-only fluorescence increase artefacts – biochemical, single-stranded RNase substrate, counter-screen for MazEF activator project, dose response (AID 588502); type: functional
T5 sequence (P0AE70 whole entry): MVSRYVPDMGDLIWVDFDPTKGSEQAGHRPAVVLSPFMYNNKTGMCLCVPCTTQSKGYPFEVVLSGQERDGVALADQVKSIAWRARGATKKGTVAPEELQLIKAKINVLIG

[8] = molecular target: T5, Endoribonuclease toxin MazF; assay: activation of MazEF endoribonuclease cleavage – biochemical, fluorescence, single-stranded RNA substrate, uHTS hits, dose response (AID 588481); type: functional
Prothrombin = Prothrombin (Homo sapiens, UniProt P00734); assay: Thrombin 1536 HTS Dose Response Confirmation. [Related pubchem assays: 1046 (Thrombin 1536 HTS; hits were confirmed in this assay)]; type: functional
[9] = molecular target: T6, Zinc finger protein mex-5 (Caenorhabditis elegans, UniProt Q9XUB2); assay: potency of MEX-5 RNA-binding blockers – biochemical, C. elegans, fluorescence polarization, dose response (AID 1960)
T6 sequence (Q9XUB2 whole entry): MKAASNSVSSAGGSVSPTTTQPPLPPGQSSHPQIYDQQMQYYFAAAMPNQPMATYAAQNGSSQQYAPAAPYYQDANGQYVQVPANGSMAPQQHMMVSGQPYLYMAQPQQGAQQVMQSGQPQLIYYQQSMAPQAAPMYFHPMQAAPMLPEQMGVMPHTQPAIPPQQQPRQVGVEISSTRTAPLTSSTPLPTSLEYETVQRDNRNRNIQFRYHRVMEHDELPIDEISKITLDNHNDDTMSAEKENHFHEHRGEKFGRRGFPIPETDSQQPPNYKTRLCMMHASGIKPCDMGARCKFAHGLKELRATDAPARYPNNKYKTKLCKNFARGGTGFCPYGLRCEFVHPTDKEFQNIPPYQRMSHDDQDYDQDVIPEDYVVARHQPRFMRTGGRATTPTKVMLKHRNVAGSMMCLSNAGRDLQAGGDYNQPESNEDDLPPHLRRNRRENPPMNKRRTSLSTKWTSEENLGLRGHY

[10] = molecular target: Heat shock protein HSP 90-alpha (Homo sapiens, UniProt P07900); type: functional, organism-based
Large T antigen = Large T antigen (Simian virus 40, UniProt P03070); type: functional, Betapolyomavirus macacae;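 note: Confirmatory-stage PubChem screen for compounds that inhibit SV40 T antigen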
Genome polyprotein = Genome polyprotein (dengue virus type 2, UniProt P29990); assay: flavivirus cap methylation enzyme inhibition – biochemical, confirmation dose response, primary screen (AID 588689); type: functional
Chain of Genome polyprotein (P29990 2492-3391 limits assumed): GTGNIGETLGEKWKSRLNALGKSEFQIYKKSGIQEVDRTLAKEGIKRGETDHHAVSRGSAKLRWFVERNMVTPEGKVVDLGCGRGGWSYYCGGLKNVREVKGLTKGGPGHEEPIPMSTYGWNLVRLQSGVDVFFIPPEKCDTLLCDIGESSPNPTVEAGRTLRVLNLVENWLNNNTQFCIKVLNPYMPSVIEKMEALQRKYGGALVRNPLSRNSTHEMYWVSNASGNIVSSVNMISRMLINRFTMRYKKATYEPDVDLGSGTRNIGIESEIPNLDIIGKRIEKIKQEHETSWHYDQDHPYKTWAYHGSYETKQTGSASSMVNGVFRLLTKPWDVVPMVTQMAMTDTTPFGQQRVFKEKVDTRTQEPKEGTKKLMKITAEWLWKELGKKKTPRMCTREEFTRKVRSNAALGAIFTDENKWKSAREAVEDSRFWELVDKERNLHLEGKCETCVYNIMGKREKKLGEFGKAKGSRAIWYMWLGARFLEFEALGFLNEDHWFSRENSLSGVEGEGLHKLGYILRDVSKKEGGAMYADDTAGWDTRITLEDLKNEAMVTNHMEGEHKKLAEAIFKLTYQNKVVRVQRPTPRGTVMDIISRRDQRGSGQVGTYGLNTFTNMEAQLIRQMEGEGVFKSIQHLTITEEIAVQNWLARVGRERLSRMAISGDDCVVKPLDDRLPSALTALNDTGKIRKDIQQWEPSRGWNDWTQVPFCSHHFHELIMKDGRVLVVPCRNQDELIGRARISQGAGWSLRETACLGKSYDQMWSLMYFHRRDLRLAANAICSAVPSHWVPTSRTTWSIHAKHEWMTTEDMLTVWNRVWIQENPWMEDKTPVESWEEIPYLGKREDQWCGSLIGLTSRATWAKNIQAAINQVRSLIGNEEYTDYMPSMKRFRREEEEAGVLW

Chain of Phospholipase A2 (P04054 whole entry): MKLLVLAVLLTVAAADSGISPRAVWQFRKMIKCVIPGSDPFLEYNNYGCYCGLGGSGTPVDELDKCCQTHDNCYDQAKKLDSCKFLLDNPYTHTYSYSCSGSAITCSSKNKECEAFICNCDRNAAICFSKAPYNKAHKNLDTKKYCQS
Chain of Large T antigen (P03070 whole entry): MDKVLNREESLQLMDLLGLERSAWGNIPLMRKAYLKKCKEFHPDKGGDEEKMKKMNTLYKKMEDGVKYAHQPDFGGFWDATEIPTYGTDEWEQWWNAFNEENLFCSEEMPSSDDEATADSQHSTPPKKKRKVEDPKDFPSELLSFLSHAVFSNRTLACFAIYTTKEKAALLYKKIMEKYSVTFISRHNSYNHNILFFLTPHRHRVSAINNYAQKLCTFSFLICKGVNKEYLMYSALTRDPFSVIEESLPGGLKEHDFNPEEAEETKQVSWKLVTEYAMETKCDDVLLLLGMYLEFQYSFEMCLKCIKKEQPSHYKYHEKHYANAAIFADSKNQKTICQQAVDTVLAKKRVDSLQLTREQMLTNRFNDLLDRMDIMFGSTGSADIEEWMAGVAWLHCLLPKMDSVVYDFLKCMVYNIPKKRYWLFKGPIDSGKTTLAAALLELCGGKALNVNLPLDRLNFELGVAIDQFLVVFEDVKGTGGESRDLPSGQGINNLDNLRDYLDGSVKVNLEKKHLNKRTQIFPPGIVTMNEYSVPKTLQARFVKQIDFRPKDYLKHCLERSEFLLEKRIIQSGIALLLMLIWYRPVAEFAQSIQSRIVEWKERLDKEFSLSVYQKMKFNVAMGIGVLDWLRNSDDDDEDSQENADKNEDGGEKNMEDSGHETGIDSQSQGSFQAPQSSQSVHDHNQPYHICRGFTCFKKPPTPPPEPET

Compound	EC50 [2]	EC50 (Streptokinase A)	IC50 (Cysteine protease ATG4B)	IC50 [5]	IC50 (Phospholipase A2)	EC50 (Streptococcus)	EC50 [7]	EC50 [8]	other results
Nc1ncc(Br)cc1S(=O)(=O)Nc1cc(C(F)(F)F)cc(C(F)(F)F)c1	6.6 µM (active)	3.32 µM (active)	8.94 µM (active)	9.12 µM (active)	8.69 µM (active)	19.9 µM (active)			EC50 [1]: 0.341 µM (active); EC50 [3]: 18.2 µM (active); IC50 [4]: 4.01 µM (active)
CCC(CC)C1=NN2C(=N)/C(=C\c3cc(C)n(-c4cccc(C)c4)c3C)C(=O)N=C2S1	7.3 µM (active)	> 150 µM (not active)	15.7 µM (active)		0.975 µM (active)	17.8 µM (active)			EC50 [6]: 6.03 µM (active)
CC(=O)Nc1cccc(C(=O)/C=C/c2ccc(N(C)C)cc2)c1							> 99 µM (inactive)	> 99 µM (inactive)	
O=C(O)c1cc([N+](=O)[O-])ccc1NCc1ccccc1Cl			11.9 µM (active)		9.55 µM (active)				IC50 (Prothrombin): > 50 µM (not active)
Oc1c(Br)cc(Br)c(/C=N/n2c(S)nnc2-c2ccccc2)c1Br			7.7 µM (active)	13.2 µM (active)	36.8 µM (inactive)				EC50 [9]: 5.63 µM (active); AC50 [10]: 8.53 µM (active); IC50 (Large T antigen): 28.2 µM (active); IC50 (Genome polyprotein): 17.9 µM (active)
Nc1nonc1-n1nnc(C(=O)N/N=C/c2ccc3c(c2)OCO3)c1CSc1ccccc1							> 99 µM (inactive)	> 99 µM (inactive)	
